From publication PMC5371667, “Targeting Bile Acid Receptors: Discovery of a Potent and Selective Farnesoid X Receptor Agonist as a New Lead in the Pharmacological Approach to Liver Diseases” (Frontiers in Pharmacology, 2017)

Columns and labels:
PPARα = biological target: T1, PPARα (Homo sapiens, UniProt Q07869); test: PPARα transactivation on HepG2 cells (GAL4 LBD reporter); type: cell-based; settings: 10 μM
T1 construct: expressed in transfected cells; host or cells: HepG2
T1 sequence (Q07869 239-466 limits assumed): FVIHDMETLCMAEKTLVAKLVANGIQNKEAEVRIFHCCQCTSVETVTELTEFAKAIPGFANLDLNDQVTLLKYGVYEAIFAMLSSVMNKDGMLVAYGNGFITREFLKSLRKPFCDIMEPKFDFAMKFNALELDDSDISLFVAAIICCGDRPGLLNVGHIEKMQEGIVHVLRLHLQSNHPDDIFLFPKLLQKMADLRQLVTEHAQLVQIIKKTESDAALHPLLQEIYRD
Description: (§1) To evaluate LXRα and LXRβ mediated transactivation, HepG2 cells were transfected with 200 ng of the reporter vector p(UAS)5XTKLuc, 100 ng of a vector containing the ligand binding domain of LXRα or LXRβ cloned upstream of the GAL4-DNA binding domain (i.e., pSG5-LXRαLBD-GAL4DBD or pSG5-LXRβLBD-GAL4DBD) and 100 of pGL4.70 Renilla. At 24 h post-transfection, cells were stimulated 18 h with 10 μM compound 2 and GW3965 (GW, 10 μM) was used as positive control. To investigate the PPARα and PPARγ mediated transactivation, HepG2 cells were transiently transfected with 200 ng reporter vector p(UAS)9XTKLuc, 100 ng of a vector containing the ligand binding domain of PPARα or PPARγ cloned upstream of the GAL4-DNA binding domain (i.e., pSG5- PPARαLBD-GAL4DBD or pSG5- PPARγLBD-GAL4DBD) and 100 of pGL4.70 Renilla. For PPARα transactivation, cells were stimulated with 10 μM compound 2 and gemfibrozil (GEM, 10 μM) was used as positive control. For PPARγ transactivation, cells were stimulated with 10 μM compound 2 and rosiglitazone (ROSI, 100 nM) was used as a positive control. Luciferase activities were assayed and normalized with Renilla activities.

LXRα = biological target: T2, LXRα (Homo sapiens, UniProt Q13133); test: LXRα transactivation on HepG2 cells (GAL4 LBD reporter); type: cell-based; settings: 10 μM
T2 construct: expressed in transfected cells; host or cells: HepG2
T2 sequence (Q13133 209-447 limits assumed): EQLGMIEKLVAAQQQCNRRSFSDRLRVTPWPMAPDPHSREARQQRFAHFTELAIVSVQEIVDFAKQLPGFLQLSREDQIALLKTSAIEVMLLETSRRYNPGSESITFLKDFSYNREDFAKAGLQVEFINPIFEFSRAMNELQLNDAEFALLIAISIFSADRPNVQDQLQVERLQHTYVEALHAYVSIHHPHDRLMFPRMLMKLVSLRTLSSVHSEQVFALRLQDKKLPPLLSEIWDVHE
Description: as §1

[1] = system: bile acid pool in plasma and gallbladder; test: Bile acid pool in C57BL6 mice (LC-MS/MS)
Description: At the day of sacrifice livers, gallbladders, blood and feces were collected from mice for further analysis.
The stock solutions of the individual tauro-conjugated and un-conjugated BAs were prepared separately in methanol at a concentration of 1 mg/mL. All stock solutions were stored at –20°C. Calibration standards were prepared by combining appropriate volumes of each BA stock solution and methanol. […] Mice serum sample aliquots of 20 μL were mixed with 80 μL of CH3OH, shaken continuously, vortexed and, after centrifugation at 16000 g for 10 min, the clear supernatant was transferred to a new vial, snap frozen and lyophilized. The sample was then re-dissolved in 40% water/ 60% MeOH with 0.1% formic acid and ammonium acetate 5 mM. […] For gallbladder, 10 mg of lyophilized gallbladder were manually pestle using a mortar and dissolved in 1 mL CH3OH. After centrifugation at 16000 g for 10 min, 500 μL of supernatants were lyophilized and reconstituted in 100 μL of 40% water/60% MeOH with 0.1% formic acid and ammonium acetate 5 mM.
For LC-MS/MS analysis, chromatographic separation was carried out on the HPLC-MS system Q-TRAP 6500 LC-MS/MS System from AB Sciex equipped with Shimadzu LC-20A LC and AutoSampler system. The mixture was separated on a Synergi Fusion RP 4 m from Phenomenex (150 mm × 2.00 mm).
Tauro-conjugated and non-conjugated BAs were separated at a flow rate of 200 μL/min using a methanol–aqueous ammonium acetate (NH4OAc) gradient. Mobile phase A was water containing 5 mM ammonium acetate and 0.1% formic acid, mobile phase B was methanol, containing ammonium acetate at 5 mM and 0.1% formic acid. […] ESI was performed in negative ion mode and the ion source temperature was set at 280°C. The tune page parameters were automatically optimized injecting taurocholic acid at 1 μM as standard.

GST-fusion FXR-LBD = biological target: T3, GST-fusion FXR-LBD (Homo sapiens, UniProt Q96RI1); test: Alpha Screen coactivator (SRC-1 peptide) recruitment assay; type: biochemical
T3 construct: 10 nM of purified GST-tagged FXR-LBD protein
T3 sequence (Q96RI1 262-486 limits assumed): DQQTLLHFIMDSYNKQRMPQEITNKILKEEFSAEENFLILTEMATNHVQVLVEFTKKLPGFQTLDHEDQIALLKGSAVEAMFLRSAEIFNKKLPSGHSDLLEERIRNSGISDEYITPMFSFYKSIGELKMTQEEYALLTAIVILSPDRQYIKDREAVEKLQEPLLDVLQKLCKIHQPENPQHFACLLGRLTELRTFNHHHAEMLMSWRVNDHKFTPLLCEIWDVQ
Description: Activation of FXR was determined by Alpha Screen Technology in a Coactivator Recruitment Assay. Anti-GST-coated acceptor beads were used to capture the GST-fusion FXR-LBD, whereas the biotinylated-SRC-1 peptide was captured by the streptavidin donor beads. Upon illumination at 680 nm, chemical energy is transferred from donor to acceptor beads across the complex streptavidin-donor/[…]-LBD/anti-GST-acceptor and a signal is produced. The assay was performed in white, low-volume, 384-well Optiplates (PerkinElmer) using a final volume of 25 μL containing final concentrations of 10 nM of purified GST-tagged FXR-LBD protein, 30 nM biotinylated SRC-1 peptide, 20 μg/mL anti-GST acceptor beads, and 10 μg/mL of streptavidin donor bead (PerkinElmer). The assay buffer contained 50 mM Tris (pH 7.4), 50 mM KCl and 1 mM DTT. The stimulation times with 1 μL of tested compound (dissolved in 50% DMSO/H2O) were fixed to 30 min at room temperature. The concentration of DMSO in each well was maintained at a final concentration of 2%. After the addition of the detection mix (acceptor and donor beads), the plates were incubated in the dark for 3 h at room temperature and then were read in an Envision microplate analyzer (PerkinElmer).

## CC[C@H]1[C@@H](O)[C@@H]2[C@H](CC[C@]3(C)[C@@H]([C@H](C)CCC(=O)O)CC[C@@H]23)[C@@]2(C)CC[C@H](N=[N+]=[N-])C[C@@H]12 [compound 2, 3β-azido-6α-ethyl-7α-hydroxy-5β-cholan-24-oic acid]
PPARα
  PPARα transactivation: unable in inducing
LXRα
  LXRα transactivation: unable in inducing
[1]; 50 mg/kg
  blood level of tHCA: significantly reduced
[1]; 50 mg/kg oral
  level of tauro-deoxycholic acid (tDCA): reduction
  plasmatic and gallbladder levels of tauro-cholic acid (tCA): significantly reduced
  plasmatic and gallbladder levels of tauro-muricholic acid (tMu): significantly reduced
GST-fusion FXR-LBD; recruitment of SRC-1 co-activator peptide, Alfa Screen, Table 1
  EC50: 610 ± 90 nM
GST-fusion FXR-LBD; recruitment of SRC-1 co-activator peptide, Alfa Screen, Table 1, 6-ECDCA = 100
  Efficacy: 90
GST-fusion FXR-LBD; recruitment of SRC-1 peptide
  efficacy respect to 6-ECDCA: 90%
